Measurements from patent US11299518B2, “Fusion respiratory syncytial virus inhibitors and use thereof” (priority 2016, dated 2022).
Where two headings read alike, the source gives them in different places. Bridge positions count the residues as written; N and C are the ends. Square brackets hold non-standard residues; d marks the D form. Peptide text beside a SMILES is read from it. R8 = C=CCCCCCC[C@@](C)(N)C(=O)O; R5 = C=CCCC[C@@](C)(N)C(=O)O; S5 = C=CCCC[C@](C)(N)C(=O)O

Tests used:
[1] = CD spectroscopy, percentage of helicity; assay type: physicochemical; details: CD at 222 nm, 10 mM phosphate buffer pH 7.5, 50 μM peptide, 25° C.
Description: The secondary structure of the peptides was then characterized by circular dichroism (DC) as described below.
The circular dichroism spectra were acquired on a Jasco J-810 and on a Chirascan spectropolarimeter. The samples were prepared in 10 mM phosphate buffer, pH 7.5, at a peptide concentration of 50 μM. Data were recorded at 25° C. by stepscan from 180 nm to 260 nm in a 0.1 cm pathlength quartz cell using 0.2 nm wavelength increments, 1 nm bandwidth and a response time of 0.5 sec. Each spectrum was an average of three measurements and was subtracted from buffer baseline. The data were converted to per residue molar ellipticity units [θ] (deg·cm2·dmol−1·residue−1) and smoothed using the Igor software. The percentage of helicity was calculated as it follows:
[formula] whereby CD222=molar ellipticity at 222 nm in [mdeg], N=number of amino acids in the peptide and C=peptide molar concentration [mol/l].

trypsin = experiment: Proteolytic stability assay, trypsin; assay type: in vitro ADME; details: trypsin (isolated protease)
Description: (§1) The compounds according to the invention are tested for their stability in a proteolytic stability assay as described below which is an important parameter to assess for the development of peptide therapeutics. Peptides of the invention 4bb, 4ca, 4a and their unstapled comparative peptide 4, as well as both SAH-RSVFBD isomers were treated with chymotrypsin and trypsin, and analysed by LC/MS to quantify the reaction products over time.
(§2) In vitro proteolytic degradation was measured via LC-MS using an Agilent Infinity 1280 UHPLC system coupled to an Agilent quadruple-time-of-flight (QTOF) 6530 with an Agilent Jet Stream electrospray ionisation (AJS ESI) source (all Agilent Technologies, Waldbronn, Germany). 5 μl of digested sample were injected onto a C18 column (Zorbax Eclipse Plus RRHD, 1.8 μm, 2.1*100 mm, Agilent Technologies, Waldbronn, Germany) equilibrated with solvent A and eluted with a flow rate of 0.4 ml/min over a 5-95% gradient of solvent B in 5 minutes, followed by 1.5 minutes at 95% and 0.5 minutes post-time where solvent A was 95% water, 5% acetonitrile with 0.2% formic acid and solvent B was 5% water, 95% acetonitrile with 0.2% formic acid. The AJS ESI source was operated with a capillary voltage of 4000V and a nozzle voltage of 600V with a drying gas temperature of 325° C. and flow rate of 10 l/min, nebulising gas pressure of 20 psi, and a sheath gas temperature of 300° C. and flow rate of 11l/min. Mass spectra were acquired in the positive ion mode from 100-3200 m/z at a rate of 1 scan per second in extended dynamic range (2 GHz) mode. The fragmentor, skimmer and octopole Radio Frequency voltages were set to 200, 60 and 750 V respectively. Data were acquired and analysed with Agilent MassHunter Workstation (version B.05).
(§3) Peptide digestion was performed as it follows: 10 μl of peptide at 0.29 mM in 50/50 acetonitrile/water were dissolved in 990 μl 100 mM Tris-HCl, pH 8.0 with 10 mM CaCl2. Following measurement of the undigested (to) sample, 10 μl of chymotrypsin at 50 μg/ml in 100 mM Tris-HCl, pH 8.0 with 10 mM CaCl2 were added and the sample was vortexed and placed immediately in the autosampler, set to 25° C. Trypsin digestion was performed as with chymotrypsin except that the buffer was in 50 mM Tris-HCl, pH8. Chymotrypsin and trypsin were purchased from Thermo Fisher Scientific.
(§4) The level of intact peptide was quantified by serial injection over time. Integration of the intact peptide compound chromatogram was performed using the Agilent Molecular Feature Extraction (MFE) algorithm. A plot of the intact peptide MFE peak area over time gave an exponential decay curve, from which the half-life was determined using MatLab […].

chymotrypsin = target: T1, chymotrypsin (Bos taurus, UniProt P00766); experiment: Proteolytic stability assay, chymotrypsin; assay type: in vitro ADME; details: chymotrypsin (isolated protease)
T1 construct: purchased Thermo Fisher Scientific
Description: as §1, §2, §3, §4

RSV-mCherry = assay type: cell-based, HRSV
Description: The inhibitory activity of the peptides of the invention was assessed in HEp-2 cells as described below:
A mCherry-expressing virus recently developed (Rameix-Welti et al., 2014, Nat. Commun., 5:5104) was used to avoid the cumbersome manipulations required with the GFP-expressing virus.
HEp-2 cells were seeded at 5×10^4 cells per well in 96 wells plate the day before the infection. Peptides were 2-fold serially diluted in DMSO (11 dilutions), then further diluted in MEM medium and pre-incubated for 15-20 minutes with 0.2 MOI of RSV-mCherry (Rameix-Welti et al., 2014, supra). Following the washing of Hep-2 cells with MEM without phenol red medium, the cells were incubated with the virus/peptide mixtures for a period of 1 h30-2 h. The cells were washed and further incubated in MEM media containing fetal bovine serum and the same concentration of peptide that was used during the infection step. Plates were incubated 48 h at 37° C. and the mCherry fluorescence was measured using a spectrofluorometer (Tecan infinite M200PRO) with excitation and emission wavelengths of 580 and 620 nm, respectively (expressed in relative fluorescence units RFU). Non-infected HEp-2 cells were used as standards for fluorescence background levels. Each experiment was performed in duplicate and repeated at least twice.

[2] = test system: 5HB, a recombinant 5 helix bundle protein containing 3 HR1 domains covalently attached to 2 HR2 domains; details: 50 nM 5HB, 2 nM FITC-T108
Description: The fluorescence polarization assay was performed in 384-well plates using a Spectramax Paradigm (Molecular devices), using an excitation and emission wavelength of 485 nm and 535 nm, respectively. The acquisition time was of 700 ms and the read height was of 1 mm.

bRSV = details: literature; cited from earlier work
hRSV = details: literature; cited from earlier work
rHRSV-Luc = experiment: In vivo rHRSV-Luc infection of mice, lung histological analysis; parameters: species or system BALB/c mice; details: intranasal peptide, day 7 pi
Description: The efficacy of peptides of the invention is tested in the following model of rHRSV infection.
Female BALB/c mice around 8 weeks of age are purchased. Mice are bred in a pathogen-free animal facility. For infection experiments, mice will be housed in cages inside stainless steel isolation cabinets that are ventilated under negative pressure with high-efficiency particulate air-filtered air. Female BALB/c mice (n=5 per group) are anesthetized by a mixture of ketamine and xylazine (1 and 0.2 mg per mouse, respectively) and infected by intranasal inoculation with 50 μl of PBS containing 6.10^4 p.f.u. of rHRSV-Luc (Luc-encoding virus that enables direct visualization of RSV replication in living mice). Peptides of the invention are administered intranasally to the mice infected or uninfected with RSV-Luc, on day 0, 2 and 4 post-infection. Body weight and temperature is monitored at days 3-10. In vivo imaging is performed each two days on anesthetized mice. At day 8, mice are killed and the safety of the treatment is investigated by a complete toxicopathological evaluation of treated mice (histologic analysis of lungs with sections of each lobe, turbinates, heart, spleen, liver, kidneys).
At day 7 pi, a time corresponding to the end of the infection in mice, the animals were sacrificed and the lungs were collected in order to perform a histological analysis. […]

circular dichroism = details: 10 mM phosphate; pH 7.5; 25 °C; 50 uM
[3] = pH 8, 50 mM Tris-HCl pH8, 25° C., LC-MS, read-out: t1/2 (min) Trypsin
[4] = 100 mM Tris-HCl pH 8.0, 10 mM CaCl2, 25° C., LC-MS, read-out: t1/2 (min) Chymotrypsin

CC[C@H](C)[C@H](NC(=O)[C@H](CCCCN)NC(=O)[C@H](CCC(=O)O)NC(C)=O)C(=O)N[C@@]1(C)CCCC=CCCC[C@@](C)(C(=O)N[C@@H](Cc2ccccc2)C(=O)N[C@H](C(=O)N[C@@]2(C)CCCC=CCCC[C@@](C)(C(=O)N[C@@H](CC(C)C)C(=O)N[C@@H](CC(C)C)C(=O)N[C@@H](Cc3c[nH]cn3)C(=O)N[C@@H](CC(N)=O)C(=O)N[C@H](C(N)=O)C(C)C)NC(=O)[C@H](CC(=O)O)NC(=O)[C@H](CO)NC(=O)[C@H](CCCCN)NC2=O)[C@@H](C)CC)NC(=O)[C@H](CC(C)C)NC(=O)[C@H](CO)NC(=O)[C@H](CCC(N)=O)NC1=O [Peptide 4bb, EKI Xaa4 QSL Xaa8 FI Xaa11 KSD Xaa15 LLHNV] (Ac-EKI[S5]QSL[S5]FI[S5]KSD[S5]LLHNV-NH2; staple 4-8, 11-15)
% helicity [1]: 52.9% | half-life at 2.9 µM (trypsin; [3]): 20 min | half-life at 2.9 µM (chymotrypsin; [4]): 3010 min

CC[C@H](C)[C@@H]1NC(=O)[C@H](Cc2ccccc2)NC(=O)[C@@](C)(NC(=O)[C@H](CC(C)C)NC(=O)[C@H](CO)NC(=O)[C@H](CCC(N)=O)NC(=O)[C@H](CCC(=O)O)NC(C)=O)CCCC=CCCC[C@@](C)(C(=O)N[C@@H](CO)C(=O)N[C@@H](CC(=O)O)C(=O)N[C@@H](CCC(=O)O)C(=O)N[C@@H](CC(C)C)C(=O)N[C@@H](CC(C)C)C(=O)N[C@@H](Cc2c[nH]cn2)C(=O)N[C@@H](CC(N)=O)C(=O)N[C@H](C(N)=O)C(C)C)NC(=O)[C@H](CCCNC(=N)N)NC1=O [Peptide 3a, EQSL X504 FIR X508 SDELLHNV, reference compound] (Ac-EQSL[S5]FIR[S5]SDELLHNV-NH2; staple 5-9)
EC50 (RSV-mCherry; HEp-2 cells, 0.2 MOI RSV-mCherry, 48 h): > 25 µM | inhibitory activity in HEp-2 cells (RSV-mCherry; RSV-mCherry): inactive | % helicity [1]: 33.9% | block of the increase of FP / activity in the biochemical 5HB assay [2]: reasonable activity

O=c1n(Cc2nc3ccccc3n2CCCCO)c2cnccc2n1C1CC1 [BMS-433771]
activity against bRSV (bRSV): active | activity against hRSV (hRSV): active

CC[C@H](C)[C@H](NC(=O)[C@H](CCCCN)NC(=O)[C@H](CCC(=O)O)NC(C)=O)C(=O)N[C@@H](CC(N)=O)C(=O)N[C@@H](CCC(N)=O)C(=O)N[C@@H](CO)C(=O)N[C@@H](CC(C)C)C(=O)N[C@@]1(C)CCCC=CCCC[C@@](C)(C(=O)N[C@@H](CO)C(=O)N[C@@H](CC(=O)O)C(=O)N[C@@]2(C)CCCC=CCCC[C@@](C)(C(=O)N[C@H](C(N)=O)C(C)C)NC(=O)[C@H](Cc3c[nH]cn3)NC(=O)[C@H](CC(C)C)NC(=O)[C@H](CC(C)C)NC2=O)NC(=O)[C@H](CCCNC(=N)N)NC(=O)[C@H]([C@@H](C)CC)NC(=O)[C@H](Cc2ccccc2)NC1=O [Peptide 4a, EKINQSL Xaa8 FIR Xaa12 SD Xaa15 LLH Xaa19 V] (Ac-EKINQSL[S5]FIR[S5]SD[S5]LLH[S5]V-NH2; staple 8-12, 15-19)
% helicity [1]: 23.5% | half-life at 2.9 µM (trypsin; [3]): 76 min | half-life at 2.9 µM (chymotrypsin; [4]): 4480 min

Cc1ccc(CCCO)c(NCc2ccc3nc(NCCCN4CCOCC4)n(Cc4nc(C)ccc4O)c3c2)c1 [TMC-353121]
activity against bRSV (bRSV): active | activity against hRSV (hRSV): active

CC[C@H](C)[C@@H]1NC(=O)[C@H](Cc2ccccc2)NC(=O)[C@@](C)(NC(=O)[C@H](CC(C)C)NC(=O)[C@H](CO)NC(=O)[C@]2(C)CCCC=CCCC[C@@](C)(NC(=O)[C@H](CCC(=O)O)NC(C)=O)C(=O)N[C@@H]([C@@H](C)CC)C(=O)N[C@@H](CC(N)=O)C(=O)N2)CCCC=CCCC[C@@](C)(C(=O)N[C@@H](CO)C(=O)N[C@@H](CC(=O)O)C(=O)N[C@@H](CCC(=O)O)C(=O)N[C@@H](CC(C)C)C(=O)N[C@@H](CC(C)C)C(=O)N[C@@H](Cc2c[nH]cn2)C(=O)N[C@@H](CC(N)=O)C(=O)N[C@H](C(N)=O)C(C)C)NC(=O)[C@H](CCCNC(=N)N)NC1=O [Peptide 4ca] (Ac-E[R5]IN[S5]SL[S5]FIR[S5]SDELLHNV-NH2; staple 2-5, 8-12)
% helicity [1]: >100% | histological changes in the lung parenchyma, mock versus peptide inoculated animals (toxicity) (rHRSV-Luc): No histological changes were noticed | interstitial pneumonia after infection by RSV, lung histology (rHRSV-Luc): no interstitial pneumonia was observed | half-life at 2.9 µM (trypsin; pH 8, b240, read-out: half-life against trypsin (converted)): 2280 min | half-life at 2.9 µM (chymotrypsin; pH 8, b240, read-out: half-life against chymotrypsin (converted)): 10800 min

CC[C@H](C)[C@H](NC(=O)[C@H](CCCCN)NC(=O)[C@H](CCC(=O)O)NC(C)=O)C(=O)N[C@@H](CC(N)=O)C(=O)N[C@@H](CCC(N)=O)C(=O)N[C@@H](CO)C(=O)N[C@@H](CC(C)C)C(=O)N[C@]1(C)CCCCCCC=CCCC[C@@](C)(C(=O)N[C@@H](CC(C)C)C(=O)N[C@@H](CC(C)C)C(=O)N[C@@H](Cc2c[nH]cn2)C(=O)N[C@@H](CC(N)=O)C(=O)N[C@H](C(N)=O)C(C)C)NC(=O)[C@H](CC(=O)O)NC(=O)[C@H](CO)NC(=O)[C@H](CCCCN)NC(=O)[C@H](CCCNC(=N)N)NC(=O)[C@H]([C@@H](C)CC)NC(=O)[C@H](Cc2ccccc2)NC1=O [Peptide 4e, EKINQSL 8504 FIRKSD X511 LLHNV, reference compound] (Ac-EKINQSL[R8]FIRKSD[S5]LLHNV-NH2; staple 8-15)
% helicity [1]: 23.3% | helicity (circular dichroism): 23.3% | block of the increase of FP / activity in the biochemical 5HB assay [2]: reasonable activity
